Results taken from PMC4411102 (PLoS ONE, 2015).

Legend:
[1] = Circular dichroism spectroscopy; assay type: physicochemical; details: 37°C
Procedure: CD spectra was performed on a JASCO CD Spectrometer (J-815) at 37 °C using a 5.0-nm bandwidth, 0.1-cm path length, 5-s response time, and a 10-nm/min scanning speed.

HIV-1 NL4-3 = experiment: GFP expression in CEM-GFP cells; details: HbAHP-25 prior to infection, day 5 post infection
Procedure: Supernatants were collected and accumulated p24 levels were determined by sandwich ELISA as per the manufacturer’s protocol (XpressBio, Thurmont, MD, USA). AZT (10nM) was used as positive control for inhibition. For GFP analysis, CEM-GFP cells were observed under fluorescent microscope (Carl Zeiss, Oberkochen, Germany) and photographed using a digital camera (DSC–S75; Sony, Tokyo, Japan). IC50 was defined as the concentration that inhibited 50% of viral activity. The selectivity index (SI) was evaluated as the ratio of CC50 to IC50 (SI = CC50/ IC50).

HIV-1 IIIB and ADA5 = experiment: Time-of-addition assay in TZM-bl cells; details: 71.40 μM
Procedure: Luciferase activity was measured at 48 hrs post treatment using Luminometer (ELx-800, Bio-Tek Instruments, USA). VRC01 (0.1 μM) antibody was used as a positive control.

gp120 of HIV-1 IIIB = experiment: Binding ELISA, gp120 of HIV-1 IIIB; details: ELISA
Procedure: (§1) After blocking with 3% bovine serum albumin (BSA) in PBS for 30 min, 100 μl of gp120 (100ng/well) in PBS-0.05% BSA was added to each well and incubated for 2 hrs at 37°C. After three washings with PBS-Tween-20 (PBS-T), cells were incubated with anti-gp120 antibody at 1:200 dilution and then with horse radish peroxidase-(HRP) conjugated secondary goat anti-human antibody (1:10000 dilution) for 1 hr at 37°C. This was followed by incubation with O-phenylenediamine for 20 min. The absorbance was measured at 492 nm on a microplate ELISA reader (ELx-800, Bio-Tek Instruments, USA). Background values obtained in the wells without HbAHP-25 were subtracted from the absorbance values from wells having all other reagents.
Supplementary file pone.0124839.s001.tif: S1 Fig Binding of designed peptides to gp120. Peptides that were designed in silico were evaluated for their binding to gp120 of HIV-1 IIIB. Peptides were coated on 96 well microtiter plate for 16 hrs and then incubated with 500ng of gp120 for 2 hrs at 37°C. This was followed by addition of anti-gp120 antibody, and absorbance was read at 492nm. Background absorbance was subtracted from the wells where peptides were not coated. […] (TIF) Click here for additional data file.

HIV-1 IIIB [2] = experiment: Anti-HIV activity in biological fluids, HIV-1 IIIB, luciferase; assay type: cell-based; details: TZM-bl luciferase
TZM-bl cells = experiment: Flow cytometry, TZM-bl cells (no gp120); assay type: binding; details: 35.7μM HbAHP-25, 1 hr at RT
Procedure: (§2) Cells were washed with same buffer twice and binding was evaluated using flow cytometer (BD Accuri C6, USA). The data was acquired and analyzed on BD Accuri software.

gp120 of HIV-1 BaL = experiment: Binding ELISA, gp120 of HIV-1 BaL
Procedure: as §1

gp120 = gp120 (Human immunodeficiency virus type 1 group M subtype B, UniProt P04578); experiment: Surface plasmon resonance; assay type: binding, HIV-1
Procedure: Briefly, gp120 (20 μg/ml) was immobilized onto carboxymethylated dextran (CM5) surface based sensor chip by amine coupling method according to the manufacturer’s instructions. […] 10mM NaOH and 0.5% SDS were used to regenerate the sensor chip surface after each experimental cycle. The binding response in resonance units (RU) was recorded as a function of time. Non-specific binding was subtracted from the control flow cells without gp120. Binding kinetics was determined with BIA evaluation 4.1 software (BIAcore) using 1:1 Langmuir binding model.

[3] = system: vaginal/endocervical epithelial cells
HeLa cells = experiment: Flow cytometry, HeLa cells (no gp120); assay type: binding; details: 35.7μM HbAHP-25, 1 hr at RT
Procedure: as §2

[4] = system: HL2/3 cells expressing gp120; experiment: Flow cytometry, HL2/3 cells expressing gp120; assay type: binding; details: 35.7μM HbAHP-25, 1 hr at RT
Procedure: as §2

HIV-1 NL4-3 (wt) = assay type: cell-based
[5] = system: PBMCs, VK2/E6E7, TZM-bl, and CEM-GFP cells; experiment: MTT cytotoxicity assay; assay type: cell-based, human
Procedure: Briefly, PBMCs, VK2/E6E7, TZM-bl, and CEM-GFP cells (5x10^4 for 24 hr assay and 2x10^4 cells for 120 hr assay) were seeded in a 96-well microtiter plate 24 hrs prior to the treatment with peptides. Cells were treated with different concentrations of peptides (4.4–1142.4μM). MTT (10 μl of 1mg/ml) was added to each well, followed by addition of 100 μl of DMSO (Sigma-Aldrich) after 3 hrs. The absorbance was measured at 540nm using ELISA reader (ELX-800, BioTek Instruments Ltd, USA.). Untreated cells were used as medium control and 0.1% Triton X-100 treated cells served as a positive control.

CD4 binding to gp120 = experiment: Competitive ELISA, CD4 binding to gp120; set-up: species or system HIV-1; details: gp120 pre-incubated with HbAHP-25 30 min, then CD4 1 hr
Procedure: 96 well microtiter plate was coated with soluble gp120 (1μg/well) from HIV-1 BaL and HIV-1 IIIB strains for 16 hrs at 4°C. […] Anti-CD4 monoclonal antibody (1:200) was added to the wells, followed by HRP-labeled goat anti-human secondary antibody (1:10000). Rest of the protocol followed was same as described above.

HIV-1 VSV = assay type: cell-based, HIV-1 pseudotyped with VSV-G
HIV-1 IIIB and HIV-1 BaL = experiment: Stability in seminal plasma and vaginal fluid (residual anti-HIV activity); assay type: in vitro ADME; details: 35.7 μM, up to 72 hrs
HIV-1 IIIB [6] = experiment: Anti-HIV activity, p24 antigen assay in H9 cells; assay type: cell-based; set-up: key to Anti-HIV activity: +: moderate; ++: significant; NA: No activity; details: for Anti-HIV activity (in words): 0.1 MoI HIV-1 IIIB pre-incubated with peptide, H9 cells, p24 on day 4
Procedure: Supplementary file pone.0124839.s002.tif: S2 Fig Anti-HIV activity of 3 designed peptides. Anti HIV activity of three peptides was determined using H9 cells. H9 cells were infected for 4 hrs with 0.1 MoI of HIV-1 IIIB pre-incubated with various concentrations of peptides. Peptides were added post infection as well. Supernatant was collected on day 4 post infection, and p24 antigen assay was performed. […] (TIF) Click here for additional data file.
Supplementary file pone.0124839.s003.tif: S3 Fig Anti-HIV activity of peptide analogues of peptide 1. After modifying the peptide 1, we performed anti-HIV assay as earlier. HIV-1 IIIB was pre-incubated with peptide analogues for 1 hr and then added to H9 cells for 4 hrs. Levels of p24 levels were determined on day 4 post infection. […] (TIF) Click here for additional data file.

[7] = 2.2–71.40 μM coated, gp120 100ng/well

SMILES: CC(C)C[C@H](NC(=O)[C@H](CC(C)C)NC(=O)[C@H](CCCCN)NC(=O)[C@H](CS)NC(=O)[C@H](CC(N)=O)NC(=O)[C@@H](NC(=O)[C@@H]1CCCN1C(=O)[C@H](CC(=O)O)NC(=O)[C@@H](NC(=O)[C@H](CCCNC(=N)N)NC(=O)[C@H](CC(C)C)NC(=O)[C@H](CCCCN)NC(=O)[C@H](Cc1c[nH]cn1)NC(=O)[C@H](C)N)C(C)C)C(C)C)C(=O)N[C@@H](CO)C(=O)N[C@@H](Cc1c[nH]cn1)C(=O)N[C@@H](CS)C(=O)N[C@@H](CC(C)C)C(=O)N[C@@H](CC(C)C)C(=O)N[C@H](C(=O)N[C@H](C(=O)N[C@@H](CC(C)C)C(=O)N[C@@H](C)C(=O)N[C@@H](CCCNC(=N)N)C(=O)N[C@@H](Cc1c[nH]cn1)C(N)=O)[C@@H](C)O)C(C)C [HbAHP-25]
- α-helical content ([1]; 10 μM, PBS pH 7 / sodium acetate pH 4, from ellipticity at 222 nm): about 50%
- Structure at low pH ([1]; pH 4 versus pH 7, 10 μM): no significant change in its structure at low pH
- GFP expression (HIV-1 NL4-3): reduced
- Anti-HIV activity, during infection (HIV-1 IIIB and ADA5; During: peptide and virus added simultaneously): still significant
- Anti-HIV activity, post infection (HIV-1 IIIB and ADA5; Post: peptide 6 hrs after infection): significantly lesser than that shown by the first two groups
- Luciferase activity, pre-incubation (HIV-1 IIIB and ADA5; Pre: virus pre-incubated with peptide): significantly lesser luciferase activity
- Inhibition, all steps (HIV-1 IIIB and ADA5; peptide at all three steps): Maximum inhibition
- Binding to recombinant gp120 of HIV-1 IIIB (gp120 of HIV-1 IIIB; [7]): binds to recombinant gp120 of both HIV-1 IIIB and HIV-1 BaL in a dose dependent manner
- Concentration with significant binding to gp120 (gp120 of HIV-1 IIIB; HIV-1 IIIB gp120): above 8.9 μM
- Change in anti-HIV activity with seminal plasma (HIV-1 IIIB [2]; human seminal plasma): did not observe any significant change
- Change in anti-HIV activity with vaginal fluid (HIV-1 IIIB [2]; human vaginal fluid): did not observe any significant change
- Effect on lactobacilli (lactobacilli): not inhibitory to lactobacilli
- Shift in fluorescent peak in FL-1A channel (TZM-bl cells): < 3%
- Binding to recombinant gp120 of HIV-1 BaL (gp120 of HIV-1 BaL; [7]): binds to recombinant gp120 of both HIV-1 IIIB and HIV-1 BaL in a dose dependent manner
- Concentration with significant binding to gp120 (gp120 of HIV-1 BaL; HIV-1 BaL gp120): above 8.9 μM
- Rmax (gp120; SPR): 99.7 RU
- Chi2 (gp120; fit to 1:1 Langmuir model): 14.7
- Disruption of tight junctions [3]: does not cause disruptions of tight junctions
- Induction of inflammation [3]: does not induce any inflammation
- Shift in fluorescent peak in FL-1A channel (HeLa cells): < 3%
- Shift in fluorescent peak in FL-1A channel [4]: 60.10 ± 4.3%
- Infectivity of HIV-1 (wt) (HIV-1 NL4-3 (wt)): inhibited
- CC50 fold higher than IC50 ([5]; CC50 versus IC50): 5 fold
- Cytotoxicity in words ([5]; MTT): not cytotoxic
- Dose without adverse effect on viability, relative to IC50 ([5]; dose higher than its IC50): 3 fold
- Inhibition of CD4 binding to gp120 (CD4 binding to gp120): significant reduction in the absorbance
- Entry of HIV-1 VSV (HIV-1 VSV): able to enter the cells within one hour even in the presence of HbAHP-25
- Infectivity of HIV-1 VSV (HIV-1 VSV): not affected
- Loss in anti-HIV activity after pre-incubation with seminal plasma (HIV-1 IIIB and HIV-1 BaL; human seminal plasma): did not observe any significant loss
- Loss in anti-HIV activity after pre-incubation with vaginal fluid (HIV-1 IIIB and HIV-1 BaL; human vaginal fluid): did not observe any significant loss
- Anti-HIV activity (in words) (HIV-1 IIIB [6]; listed as analogue-1b): showed better anti-HIV activity than analogue-1a and analogue of peptide-3
- Anti-HIV activity (in words) (HIV-1 IIIB [6]; listed as peptide analogue-1b): significantly enhanced
- Anti-HIV activity (HIV-1 IIIB [6]; class symbols of Table 1, HIV-1 IIIB in H9 cells, p24 (S2, S3 Fig)): ++
